# Laboratory results reported in US6919043B2, “Method of sterilization for container, apparatus using therefor and heat treatment for container” (Dai Nippon Printing Co., Ltd., priority 2002, dated 2005).
# Read-outs that look alike come from different tables or passages of the source.
# Test system: Bacillus subtilis spore
# Details: rinsing 3 sec, log(adhesion bacilli/survival bacilli)
# Method: Sterilization process was performed, changing the conditions of a detail according to the following procedure for PET bottle (bottle made from a polyethylene terephthalate) with a capacity of 500 ml.
# The hot blast 3 was supplied to the interior of the bottle per minute 0.1 m from the nozzle with a bore of 10 mm, and the preheating of the bottle was carried out. The temperature of hot blast was set as 105° C.-125° C. near the nose of the nozzle, and the amount of insertions into the bottle of the nozzle was set as 30 mm. Simultaneously, the hot blast of 85° C. was turned and sprayed on the lip portion of a bottle by the flow rate of 3 per minute 0.1 m from the nozzle with a bore of 50 mm. In addition, the number of nozzles for the lip portion heating was two to one bottle. The blasting time of the hot blast from each nozzle was set up in 3 seconds. The temperature in the bottle after the hot blast supplying had reached 50° C.
# The bottle was left for 0.5-3.5 seconds after the mist supplying. Then, the nozzle was inserted into the bottle and hot blast was blown for 1 second. The bore of the nozzle, the amount of insertions of the nozzle, and the temperature and the flow rate of the hot blast were the same as the preheating.
# The bottle was left for 1-3.5 second after hot blast blowing in. Then, the bottle was inverted and was inserted the a nozzle a nozzle with a bore of 6 mm in the interior, and the bottle was rinsed for aseptic water which is heated by 70° C. for 3 seconds. The flow rate of aseptic water was 8.5 L/min.
# Moreover, a part of process was omitted when sterilization process was performed.
# About each of each sterilization conditions, five bottles with the Bacillus subtilis spore of 103, 104, and 105 was sterilized, the trypto-soy bouillon medium was distributed aseptically in the bottle, and the existence of culture and sterilization was evaluated. The bacterial number of survivals was computed by the most probable number (MPN: most probable number) in probability theory from the test result in each sterilization conditions, and the following formula estimated the sterilization effect in quest of the opposite numeric value of the number of adhesion bacilli, and the number of survival bacilli.
# Sterilization effect=log (the number of adhesion bacilli/the number of survival bacilli).
smiles,measurement,setting,value
OO [hydrogen peroxide],Sterilization effect,"Condition 1: preheating 50 °C, mist 35 μl, leaving 3.5 sec, hot blast Yes, standing 1.0 sec",6.5
same,Sterilization effect,"Condition 2: preheating 50 °C, mist 25 μl, leaving 3.5 sec, hot blast Yes, standing 1.0 sec",5.5
same,Sterilization effect,"Condition 3: preheating 50 °C (neck portion not heated from the outside), mist 20 μl, leaving 3.5 sec, hot blast Yes, standing 1.0 sec",5.0
same,Sterilization effect,"Condition 4: preheating 50 °C, mist 15 μl, leaving 3.5 sec, hot blast Yes, standing 1.0 sec",4.5
same,Sterilization effect,"Condition 5: preheating 50 °C (neck portion heated from the exterior), mist 20 μl, leaving 3.5 sec, hot blast Yes, standing 1.0 sec",5.5
same,Sterilization effect,"Condition 6: preheating No, mist 40 μl, leaving 3.5 sec, hot blast Yes, standing 1.0 sec",3.0
same,Sterilization effect,"Condition 7: preheating No, mist 20 μl, leaving 3.5 sec, hot blast Yes, standing 1.0 sec",<2
same,Sterilization effect,"Condition 8: preheating 50 °C, mist 30 μl, leaving 0.5 sec, hot blast Yes, standing 3.5 sec",3.0
same,Sterilization effect,"Condition 9: preheating 50 °C, mist 20 μl, leaving 0.5 sec, hot blast Yes, standing 3.5 sec",<2
same,Sterilization effect,"Condition 10: preheating 50 °C, mist 20 μl, leaving 3.5 sec, hot blast No, standing 1.0 sec",4.0
same,Sterilization effect,"Condition 11: preheating 50 °C, mist 15 μl, leaving 3.5 sec, hot blast No, standing 1.0 sec",3.0
